Experimental data taken from ChEMBL document CHEMBL1134069 (Bioorg Med Chem Lett, 2001).

How the values were obtained:
[1] = target: T1, Thymidine kinase, cytosolic (Homo sapiens, UniProt P04183); assay: Inhibitory concentration against cytosolic thymidine kinase (TK-1)
T1 sequence (P04183 whole entry): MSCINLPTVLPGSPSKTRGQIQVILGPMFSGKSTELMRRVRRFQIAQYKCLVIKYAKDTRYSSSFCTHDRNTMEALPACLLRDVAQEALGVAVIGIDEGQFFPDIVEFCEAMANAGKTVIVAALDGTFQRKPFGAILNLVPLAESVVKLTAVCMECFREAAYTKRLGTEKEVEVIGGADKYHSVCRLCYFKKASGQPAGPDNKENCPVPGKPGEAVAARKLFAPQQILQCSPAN

Deoxynucleoside kinase = target: T2, Deoxynucleoside kinase (Drosophila melanogaster, UniProt Q9XZT6); assay: Inhibitory concentration against Drosophila melanogaster deoxyribonucleoside kinase (Dm-dNK)
T2 sequence (Q9XZT6 whole entry): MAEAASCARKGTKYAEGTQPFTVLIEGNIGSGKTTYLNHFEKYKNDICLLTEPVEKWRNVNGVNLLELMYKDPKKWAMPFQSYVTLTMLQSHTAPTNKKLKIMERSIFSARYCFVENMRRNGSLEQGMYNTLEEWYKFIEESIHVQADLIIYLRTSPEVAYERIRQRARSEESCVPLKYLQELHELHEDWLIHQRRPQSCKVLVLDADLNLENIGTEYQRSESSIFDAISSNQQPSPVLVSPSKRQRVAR

[2] = target: T3, Thymidine kinase 2, mitochondrial (Homo sapiens, UniProt O00142); assay: Inhibitory concentration against mitochondrial thymidine kinase (TK-2)
T3 sequence (O00142 whole entry): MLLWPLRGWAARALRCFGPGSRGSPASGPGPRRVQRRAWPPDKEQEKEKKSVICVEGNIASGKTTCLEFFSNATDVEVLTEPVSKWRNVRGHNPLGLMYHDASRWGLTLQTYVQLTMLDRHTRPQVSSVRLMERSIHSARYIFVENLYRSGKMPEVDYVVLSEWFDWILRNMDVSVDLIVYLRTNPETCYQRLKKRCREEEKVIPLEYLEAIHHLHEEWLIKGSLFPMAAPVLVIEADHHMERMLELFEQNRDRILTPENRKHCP

Thymidine kinase [3] = target: T4, Thymidine kinase (Varicella-zoster virus (strain Dumas) (HHV-3) (Human herpesvirus 3), UniProt P09250); assay: Inhibitory concentration against Varicella- zoster virus thymidine kinase(VZV TK); parameters: species or system Human alphaherpesvirus 3
T4 sequence (P09250 whole entry): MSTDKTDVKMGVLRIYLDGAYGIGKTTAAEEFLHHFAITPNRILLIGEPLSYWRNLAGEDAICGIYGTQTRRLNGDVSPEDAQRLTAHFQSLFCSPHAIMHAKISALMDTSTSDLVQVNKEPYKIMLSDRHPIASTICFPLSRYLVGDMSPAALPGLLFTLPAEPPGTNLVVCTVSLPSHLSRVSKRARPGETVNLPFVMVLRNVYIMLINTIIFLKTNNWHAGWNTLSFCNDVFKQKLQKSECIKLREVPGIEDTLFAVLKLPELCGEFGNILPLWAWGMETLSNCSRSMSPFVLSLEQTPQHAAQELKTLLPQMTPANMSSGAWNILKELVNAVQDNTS

Thymidine kinase [4] = target: T5, Thymidine kinase (Human herpesvirus 1 (strain SC16) (HHV-1) (Human herpes simplex virus1), UniProt P06479); assay: Inhibitory concentration against Herpes simplex virus type 1 thymidine kinase(HSV-1 TK); parameters: species or system Herpes simplex virus (type 1 / strain SC16)
T5 sequence (P06479 whole entry): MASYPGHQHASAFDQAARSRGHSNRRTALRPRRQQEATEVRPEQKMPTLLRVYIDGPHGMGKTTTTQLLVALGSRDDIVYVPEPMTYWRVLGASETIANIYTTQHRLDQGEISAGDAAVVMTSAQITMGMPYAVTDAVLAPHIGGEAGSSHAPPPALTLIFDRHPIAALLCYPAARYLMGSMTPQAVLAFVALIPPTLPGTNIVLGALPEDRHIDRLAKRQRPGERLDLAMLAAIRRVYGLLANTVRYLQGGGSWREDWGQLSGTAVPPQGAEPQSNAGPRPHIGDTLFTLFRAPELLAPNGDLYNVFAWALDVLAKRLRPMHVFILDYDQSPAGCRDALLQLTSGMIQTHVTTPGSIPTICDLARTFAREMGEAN

Cc1cn([C@@H]2O[C@H](CO)[C@@H](O)[C@@H]2O)c(=O)[nH]c1=O
IC50 [1]: > 1000 µM | IC50 (Deoxynucleoside kinase): 65 µM | IC50 [2]: 285 µM | IC50 (Thymidine kinase [3]): 17 µM | IC50 (Thymidine kinase [4]): 24 µM

CCCCCCCC(=O)O[C@H]1[C@H](O)[C@@H](CO)O[C@H]1n1cc(/C=C/Br)c(=O)[nH]c1=O
IC50 [1]: > 1000 µM | IC50 (Deoxynucleoside kinase): 178 µM | IC50 [2]: 6.3 µM | IC50 (Thymidine kinase [3]): 718 µM | IC50 (Thymidine kinase [4]): > 1000 µM

CCCCCCCCO[C@H]1[C@H](O)[C@@H](CO)O[C@H]1n1ccc(N)nc1=O
IC50 [1]: > 1000 µM | IC50 [2]: > 1000 µM | IC50 (Thymidine kinase [3]): > 1000 µM | IC50 (Thymidine kinase [4]): > 1000 µM

Cc1cn([C@@H]2O[C@H](CO)[C@@H](O)[C@H]2OCc2ccccc2)c(=O)[nH]c1=O
IC50 [1]: > 1000 µM | IC50 (Deoxynucleoside kinase): > 1000 µM | IC50 [2]: 801 µM | IC50 (Thymidine kinase [3]): > 1000 µM | IC50 (Thymidine kinase [4]): > 1000 µM

CCCCC(=O)O[C@H]1[C@H](O)[C@@H](CO)O[C@H]1n1cc(C)c(=O)[nH]c1=O
IC50 [1]: > 1000 µM | IC50 (Deoxynucleoside kinase): > 1000 µM | IC50 [2]: > 1000 µM | IC50 (Thymidine kinase [3]): > 1000 µM | IC50 (Thymidine kinase [4]): > 1000 µM

CCCCCCCCCC(=O)O[C@H]1[C@H](O)[C@@H](CO)O[C@H]1n1cc(C)c(=O)[nH]c1=O
IC50 [1]: > 1000 µM | IC50 (Deoxynucleoside kinase): 872 µM | IC50 [2]: 27 µM | IC50 (Thymidine kinase [3]): > 1000 µM | IC50 (Thymidine kinase [4]): > 1000 µM

COCC(=O)O[C@H]1[C@H](O)[C@@H](CO)O[C@H]1n1cc(/C=C/Br)c(=O)[nH]c1=O
IC50 [1]: > 1000 µM | IC50 [2]: 402 µM | IC50 (Thymidine kinase [3]): 35 µM | IC50 (Thymidine kinase [4]): 84 µM

CCCCCCCCCCCC(=O)O[C@H]1[C@H](O)[C@@H](CO)O[C@H]1n1cc(C)c(=O)[nH]c1=O
IC50 [1]: > 1000 µM | IC50 (Deoxynucleoside kinase): > 1000 µM | IC50 [2]: 28 µM | IC50 (Thymidine kinase [3]): > 1000 µM | IC50 (Thymidine kinase [4]): > 1000 µM

CCCCCCCCO[C@H]1[C@H](O)[C@@H](CO)O[C@H]1n1cc(C)c(=O)[nH]c1=O
IC50 [1]: > 1000 µM | IC50 (Deoxynucleoside kinase): > 1000 µM | IC50 [2]: 120 µM | IC50 (Thymidine kinase [3]): > 1000 µM | IC50 (Thymidine kinase [4]): > 1000 µM

CCCCCCCCCC(=O)O[C@H]1[C@H](O)[C@@H](CO)O[C@H]1n1cc(/C=C/Br)c(=O)[nH]c1=O
IC50 [1]: > 1000 µM | IC50 (Deoxynucleoside kinase): 163 µM | IC50 [2]: 6.8 µM | IC50 (Thymidine kinase [3]): 845 µM | IC50 (Thymidine kinase [4]): > 1000 µM

O=c1[nH]c(=O)n(C2O[C@H](CO)[C@@H](O)[C@@H]2O)cc1/C=C\Br (some centres not stated)
IC50 [1]: > 500 µM | IC50 (Deoxynucleoside kinase): 31.6 µM | IC50 [2]: 43 µM | IC50 (Thymidine kinase [3]): 3.3 µM | IC50 (Thymidine kinase [4]): 4.3 µM

Nc1ccn([C@@H]2O[C@H](CO)[C@@H](O)[C@@H]2O)c(=O)n1 [CYTARABINE]
IC50 [1]: > 1000 µM | IC50 [2]: > 1000 µM | IC50 (Thymidine kinase [3]): > 1000 µM | IC50 (Thymidine kinase [4]): > 1000 µM
